From PubChem BioAssay AID2060612 (Molecular Pharmacology Branch, DTP, NCI, 2025)

System: 565232-114-T-J1-PDC complex spheroid viability
Test: Anticancer human tumor 565232-114-T-J1-PDC patient-derived bladder carcinoma cell line growth inhibition [CLK]
Settings: for IC50: curve of first compound; for viability, T/C: stronger effect = lower value
Text: A high-throughput screen of multi-cell type tumor spheroids was designed to identify active combinations of […] and targeted small molecules. Complex spheroids include a stromal component modeled by human endothelial cells (HUVEC) and fibroblasts modeled by human mesenchymal stem cells (MSCs). The concentration ranges selected for each drug and investigational agent were based upon clinically achievable concentrations if the clinical Cmax of the agent was known.
Compounds. The drugs and investigational agents: cirtuvivint (SM08502; NSC835563), CC-671 (NSC850746), vemurafenib (NSC761431), tapotoclax (NSC804041), sotorasib (NSC818433), adagrasib (NSC831453), MRTX-1133 (NSC836407), BAY2416964 (NSC825713), copanlisib (NSC816437), inavolisib (NSC800729), abemaciclib (NSC768073), osimertinib (NSC779217), entinostat (NSC756642), eltanexor (KPT-8602, NSC794443), venetoclax (NSC766270), ceralasertib (NSC777638), bortezomib (NSC756655), olaparib (NSC753686), talazoparib (NSC767125), alisertib (NSC759677), peposertib (NSC802822), gemcitabine (NSC613327), 5-fluorouracil (NSC19893), SN-38 (NSC673596), oxaliplatin (NSC266046), paclitaxel (NSC125973), and doxorubicin (NSC123127), were obtained from the National Cancer Institute (NCI) Developmental Therapeutics Program Chemical Repository. The FDA-approved anticancer drug set is available from the Developmental Therapeutics Program at https://dtp.cancer.gov/organization/dscb/obtaining/available plates.htm. […] The stock solutions were prepared in dimethyl sulfoxide (DMSO, Sigma-Aldrich, St. Louis, MO, cat. D2650), except for the platinum complexes which were prepared in saline (Quality Biological, Gaithersburg, MD, cat. 114-055-101), at 800-fold the tested concentration and stored at -70 degrees C prior to their use. All drugs and investigational agents were tested over a range starting from a high concentration at or near the clinical Cmax and decreasing in half-log increments. If the clinical Cmax for an agent had not been determined, the highest concentration tested was 10 microM.
Cell Culture. All cells were maintained in an incubator at 37 degrees C and 5% CO2 with 95% humidity. The PDC lines were cultured according to standard operating procedures established by the NCI PDMR. Briefly, all PDCs were thawed and cultured in Matrigel-coated flasks prepared with a working solution of 1X Ham's F-12 nutrient mix, without supplementation (Invitrogen, Waltham, MA, cat. 11765054), 100 U/mL penicillin-streptomycin (Invitrogen, cat. 15140122), and 2.5% Matrigel (Corning Inc., Corning, NY, cat. 354248) for the first three passages. The 947758-054-R-J2-PDC line was cultured in 6B/Colon 1A media, which includes advanced DMEM/F-12 (Thermo Fisher Scientific, cat. 12634028), 10 mM HEPES (Thermo Fisher Scientific, cat. 15630080), 1X GlutaMAX supplement (Thermo Fisher Scientific, cat. 35050061), 0.1 mg/mL primocin (InvivoGen, cat. ant-pm-2), 10% defined fetal bovine serum, heat inactivated (HyClone Laboratories Inc., cat. SH30070.03HI), 1.25 mM N-Acetyl-L-cysteine (Sigma-Aldrich, cat. A9165), 10 mM nicotinamide (Sigma-Aldrich, cat. N0636), 1X B-27 supplement (Thermo Fisher Scientific, cat. 17504044), 1X N-2 supplement (Thermo Fisher Scientific, cat. 17502048), and 10 microM Y-27632 dihydrochloride (Tocris Bioscience, cat. 1254). The 876862-298-R-J1-PDC was cultured in 6E media, which includes all 6B/Colon 1A media components plus 50% L-WRN conditioned media (ATCC, cat. CRL-3276), 50 ng/mL recombinant human EGF recombinant protein (hEGF; Thermo Fisher Scientific, cat. PHG0311), 10 ng/mL recombinant human fibroblast growth factor 10 (hGFG-10; PeproTech, cat. 100-26), 1 ng/mL recombinant human fibroblast growth factor 2 (hFGF-2; PeproTech, cat. 100-18B), and 1 µM prostaglandin E2 (PGE2; Tocris, cat. 2296). The 227483-062-R1-J1-PDC line was cultured in Panc media, containing all 6E components except hFGF-2, with the addition of 500 nM SB-431542 (Selleckchem, cat. S1067) and 10 nM gastrin (Tocris, cat. 3006). […]

[1] = second compound 0.0316 µM, first compound 0.0316 µM
[2] = second compound 0.0316 µM, first compound 0.1 µM
[3] = second compound 0.0316 µM, first compound 0.316 µM
[4] = second compound 0.0316 µM, first compound 1 µM
[5] = second compound 0.1 µM, first compound 0.0316 µM
[6] = second compound 0.1 µM, first compound 0.1 µM
[7] = second compound 0.1 µM, first compound 0.316 µM
[8] = second compound 0.1 µM, first compound 1 µM
[9] = second compound 0.316 µM, first compound 0.0316 µM
[10] = second compound 0.316 µM, first compound 0.1 µM
[11] = second compound 0.316 µM, first compound 0.316 µM
[12] = second compound 0.316 µM, first compound 1 µM
[13] = second compound 1 µM, first compound 0.0316 µM
[14] = second compound 1 µM, first compound 0.1 µM
[15] = second compound 1 µM, first compound 0.316 µM
[16] = second compound 1 µM, first compound 1 µM
[17] = second compound 3.16 µM, first compound 0.0316 µM
[18] = second compound 3.16 µM, first compound 0.1 µM
[19] = second compound 3.16 µM, first compound 0.316 µM
[20] = second compound 3.16 µM, first compound 1 µM
[21] = second compound 10 µM, first compound 0.0316 µM
[22] = second compound 10 µM, first compound 0.1 µM
[23] = second compound 10 µM, first compound 0.316 µM
[24] = second compound 10 µM, first compound 1 µM
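Further: spheroids exposed to compounds for 7 days before readout.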
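Wherever viability, T/C is given: 100% = DMSO vehicle wells with luminescence normalized to vehicle control.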

Compound: CC(CO)NC(=O)c1cc(-c2ccc(Cl)cc2)nn(-c2cnn(C)c2)c1=O (centres undefined) + CN1CCN(c2cc(C(=O)Nc3cc4cc(-c5cnn(C)c5)ccc4cn3)ccn2)CC1
- IC50 (second compound 0.0316 µM): > 10 µM
- IC50 (second compound 0.1 µM): > 10 µM
- IC50 (second compound 0.316 µM): < 0.0316 µM
- IC50 (second compound 1 µM): < 0.0316 µM
- IC50 (second compound 3.16 µM): < 0.0316 µM
- IC50 (second compound 10 µM): < 0.0316 µM
- viability, T/C [1]: 104%
- viability, T/C [2]: 73.7%
- viability, T/C [3]: 86.5%
- viability, T/C [4]: 86.2%
- viability, T/C (second compound 0.0316 µM, first compound 3.16 µM): 93.7%
- viability, T/C (second compound 0.0316 µM, first compound 10 µM): 103%
- viability, T/C [5]: 92%
- viability, T/C [6]: 91%
- viability, T/C [7]: 96.7%
- viability, T/C [8]: 89.7%
- viability, T/C (second compound 0.1 µM, first compound 3.16 µM): 124%
- viability, T/C (second compound 0.1 µM, first compound 10 µM): 120%
- viability, T/C [9]: 22.2%
- viability, T/C [10]: 21%
- viability, T/C [11]: 27.3%
- viability, T/C [12]: 23.4%
- viability, T/C (second compound 0.316 µM, first compound 3.16 µM): 24.6%
- viability, T/C (second compound 0.316 µM, first compound 10 µM): 26.9%
- viability, T/C [13]: 0.2%
- viability, T/C [14]: 2.31%
- viability, T/C [15]: 1.11%
- viability, T/C [16]: 0.21%
- viability, T/C (second compound 1 µM, first compound 3.16 µM): 2.03%
- viability, T/C (second compound 1 µM, first compound 10 µM): 3.08%
- viability, T/C [17]: 0.21%
- viability, T/C [18]: 0.65%
- viability, T/C [19]: 4.15%
- viability, T/C [20]: 0.22%
- viability, T/C (second compound 3.16 µM, first compound 3.16 µM): 2.88%
- viability, T/C (second compound 3.16 µM, first compound 10 µM): 2.53%
- viability, T/C [21]: 0.26%
- viability, T/C [22]: 0.28%
- viability, T/C [23]: 2.2%
- viability, T/C [24]: 1.23%
- viability, T/C (second compound 10 µM, first compound 3.16 µM): 4.13%
- viability, T/C (second compound 10 µM, first compound 10 µM): 3.6%

Compound: CCN1CCN(Cc2ccc(Nc3ncc(F)c(-c4cc(F)c5nc(C)n(C(C)C)c5c4)n3)nc2)CC1 + CN1CCN(c2cc(C(=O)Nc3cc4cc(-c5cnn(C)c5)ccc4cn3)ccn2)CC1
- IC50 (second compound 0.0316 µM): > 1 µM
- IC50 (second compound 0.1 µM): > 1 µM
- IC50 (second compound 0.316 µM): < 0.00316 µM
- IC50 (second compound 1 µM): < 0.00316 µM
- IC50 (second compound 3.16 µM): < 0.00316 µM
- IC50 (second compound 10 µM): < 0.00316 µM
- viability, T/C (second compound 0.0316 µM, first compound 0.00316 µM): 116%
- viability, T/C (second compound 0.0316 µM, first compound 0.01 µM): 82.1%
- viability, T/C [1]: 98.7%
- viability, T/C [2]: 92.8%
- viability, T/C [3]: 113%
- viability, T/C [4]: 123%
- viability, T/C (second compound 0.1 µM, first compound 0.00316 µM): 88.1%
- viability, T/C (second compound 0.1 µM, first compound 0.01 µM): 90.2%
- viability, T/C [5]: 89%
- viability, T/C [6]: 103%
- viability, T/C [7]: 116%
- viability, T/C [8]: 113%
- viability, T/C (second compound 0.316 µM, first compound 0.00316 µM): 15.5%
- viability, T/C (second compound 0.316 µM, first compound 0.01 µM): 24.7%
- viability, T/C [9]: 23.2%
- viability, T/C [10]: 29.1%
- viability, T/C [11]: 42.4%
- viability, T/C [12]: 61.1%
- viability, T/C (second compound 1 µM, first compound 0.00316 µM): 0.26%
- viability, T/C (second compound 1 µM, first compound 0.01 µM): 0.27%
- viability, T/C [13]: 0.3%
- viability, T/C [14]: 0.29%
- viability, T/C [15]: 1.31%
- viability, T/C [16]: 2.37%
- viability, T/C (second compound 3.16 µM, first compound 0.00316 µM): 0.2%
- viability, T/C (second compound 3.16 µM, first compound 0.01 µM): 0.22%
- viability, T/C [17]: 0.96%
- viability, T/C [18]: 0.16%
- viability, T/C [19]: 0.25%
- viability, T/C [20]: 0.35%
- viability, T/C (second compound 10 µM, first compound 0.00316 µM): 0.18%
- viability, T/C (second compound 10 µM, first compound 0.01 µM): 0.2%
- viability, T/C [21]: 0.5%
- viability, T/C [22]: 0.16%
- viability, T/C [23]: 0.21%
- viability, T/C [24]: 1.34%
